Experimental data taken from patent US20230193199A1, “Methods for Printing Functional Human Neural Tissue” (Wisconsin Alumni Research Foundation, priority 2021, published 2023).

Experiments:
glutamate receptor = assay: whole-cell patch-clamp recording of sEPSCs; assay type: cell-based, human; conditions: holding potential −70 mV; CNQX 10 μM applied with D-APV 50
Description: Whole-cell patch-clamp recordings were made from human PSC-derived cortical glutamatergic and GABAergic neurons. The bath solution consisted of 135 mM NaCl, 3 mM KCl, 2 mM CaCl2, 1 mM MgCl2, 10 mM HEPES, 11 mM glucose, 10 mM sucrose, pH 7.4. Recording pipettes were filled with an intracellular solution containing 120 mM potassium D-gluconate, 1 mM ethylene glycol-bis (β-aminoethyl ether) N,N,N′,N′-tetraacetic acid (EGTA), 10 mM 4-(2-hydroxyethyl)piperazine-1-ethanesulfonic acid (HEPES), 4 mM ATP-Mg, 0.3 mM GTP-Na, 10 mM phosphocreatine, 0.1 mM CaCl2, 1 mM MgCl2, pH 7.2, 280-290 mOsm/L. Briefly, the neurons were held at −70 mV to record the Na+/K+ channel activities with voltage-clamp model. […] Spontaneous excitatory postsynaptic currents (sEPSCs) and spontaneous inhibitory currents (sIPSCs) were recorded in gap-free mode at a holding potential of −70 mV and 0 mV, respectively. sEPSCs were blocked by application of the glutamate receptor antagonist 6-Cyano-7-nitroquinoxaline-2,3-dione (CNQX, 10 μM) and D-(−)-2-amino-5-phosphonopentanoic acid (D-APV, 50 sIPSCs were blocked by application of the GABAA receptor antagonist bicuculline (10 An Olympus BX51WI microscope was used to visualize neurons. A MultiClamp 700B amplifier (Axon instruments, Molecular Devices, Sunnyvale, Calif., USA) was used to investigate the voltage clamp and current clamp recordings. […]

[1] = test system: hPSC-derived cortical neural progenitor cells (NPCs); assay: Live/Dead assay of hPSC-NPCs cultured in fibrin gel; assay type: cell-based, human
Description: For cell culturing in the fibrin gel, dissociated hPSC-NPCs at a density of 1×10^6 were mixed with fibrinogen at the following concentrations (1, 2.5, 5, 10 and 20 mg/mL) as show in FIG. 5. 0.5 mg/mL aprotinin was added for preventing gel degradation. 1 μL of the fibrinogen-laden cells were dropped on the poly-O coated plates at RT (room temperature). 1 different concentrations of thrombin (0.5, 1, 2.5, 5 and 10 U) solution with 2.5 mM CaCl2 were then added and mixed with the cells-fibrinogen solution. Fresh medium was added after gelation. Cells were encapsulated in the fibrin gel constructs and cultured at 37° C. incubator for characterization. […] The cells, however, tended to aggregate at higher fibrinogen levels. Thus, 2.5 or 5 mg/mL fibrinogen with 0.5 or 1 U thrombin was used for identifying an optimal gelation time.
The cell viability was measured by Live/Dead assay. Briefly, Live/Dead® staining kit (Molecular Probes) was used to assess cell viability. Immediately after harvesting, the cells were incubated in DMEM/F12 containing 1 μM calcein AM and 2 μM ethidium homodimer I for 30 min. […] The number of live (green) and dead (red) cells were counted in each field using Cell Counter in Image-J. The live/dead cell numbers from the five images of one sample were averaged to give each data point and five samples were used to determine the viability.

Row | Compound | spontaneous excitatory postsynaptic currents (sEPSCs) (glutamate receptor) | also measured
1 | N#Cc1cc2c(cc1[N+](=O)[O-])=NC(=O)C(=O)N=2 [CNQX, 6-Cyano-7-nitroquinoxaline-2,3-dione] | blocked | –
2 | N[C@H](CCCP(=O)(O)O)C(=O)O [D-APV, D-(−)-2-amino-5-phosphonopentanoic acid] | blocked | –
3 | fibrinogen | – | cell viability (percent of live cells to total cells) ([1]; increasing fibrinogen concentrations at fixed low thrombin (0.5 U)): not influenced
4 | thrombin | – | cell viability (percent of live cells to total cells) ([1]; increasing thrombin concentrations at fixed fibrinogen 2.5 mg/ml): decreased with increasing thrombin concentrations
